Experimental data from patent US11932609B1 (priority 2023, dated 2024).

Test system: multidrug-resistant (MDR) strains of Mycobacterium tuberculosis
Type: cell-based
Conditions: MDR-TB, drug resistance at least to isoniazid and rifampicin; REMA, Middlebrook 7H9 broth, 8 days at 37° C. plus overnight with resazurin

Row | SMILES | Anti-tubercular activity against Mycobacterium tuberculosis MDR (MIC)
1 | CCOC(=O)C1=C(C)NC(Nc2ccc(Br)cc2C#N)=NC1c1ccc(F)cc1 (centres unmarked) [DHPM-KNV6, Ethyl 2-((4-bromo-2-cyanophenyl)amino)-4-(4-fluorophenyl)-6-methyl-1,4-dihydropyrimidine-5-carboxylate] | No activity
2 | CCOC(=O)C1=C(C)NC(Nc2ccccc2I)=NC1c1ccc(F)cc1 (centres unmarked) [DHPM-KNV8, Ethyl 4-(4-fluorophenyl)-2-((2-iodophenyl)amino)-6-methyl-1,4-dihydropyrimidine-5-carboxylate] | No activity
